Experimental data taken from paper PMC10206061, “Suxiao Jiuxin Pill attenuates acute myocardial ischemia via regulation of coronary artery tone” (Frontiers in Pharmacology, 2023).
Where two headings read alike, the source gives them in different places.

Target: T1, Akt1 (Homo sapiens, UniProt P31749)
T1 construct: recombinant human Akt1 protein (1775-KS-010, Bio-Techne)
Assay: SPR (Biacore T200, Akt1 amine-coupled on CM5 chip, […] steady-state fit)
Type: binding

T1 sequence (P31749 whole entry): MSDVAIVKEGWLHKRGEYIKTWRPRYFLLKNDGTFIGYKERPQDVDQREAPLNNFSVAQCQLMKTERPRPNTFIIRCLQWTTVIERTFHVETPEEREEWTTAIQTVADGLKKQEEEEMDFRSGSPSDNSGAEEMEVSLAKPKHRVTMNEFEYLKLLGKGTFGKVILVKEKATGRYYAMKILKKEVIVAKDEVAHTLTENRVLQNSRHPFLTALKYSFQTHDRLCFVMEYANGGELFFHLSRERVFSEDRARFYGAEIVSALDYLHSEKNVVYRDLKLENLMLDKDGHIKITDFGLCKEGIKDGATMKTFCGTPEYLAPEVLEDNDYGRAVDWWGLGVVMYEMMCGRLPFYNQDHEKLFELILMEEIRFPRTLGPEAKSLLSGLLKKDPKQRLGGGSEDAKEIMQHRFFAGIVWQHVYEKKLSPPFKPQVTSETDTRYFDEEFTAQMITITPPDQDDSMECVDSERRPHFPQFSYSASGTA

Row | Compound | Kd (read-out: Kd) [µM] | Kd [µM]
1 | COc1cc2ccc(=O)oc2cc1O [scopoletin] | 11.1 | –
2 | CCCC[C@@H]1OC(=O)C2=C1CCC=C2 [senkyunolide A] | – | 752
